Experimental data published in patent US9115116B2, “Dual action inhibitors against histone deacetylases and 3-hydroxy-3-methylglutaryl coenzyme a reductase” (Academia Sinica, priority 2013, dated 2015).
Where two headings read alike, the source gives them in different places.

How the values were obtained:
HDAC1 = HDAC1 (Homo sapiens (Human), UniProt Q13547); experiment: HDAC fluorescent activity assay (HDAC1); format: biochemical
Protocol: (§1) The HDAC activity was performed using the HDAC fluorescent activity assay kit (BIOMOL, Plymouth Meeting, Pa., USA) according to the manufacturer's instructions. Briefly, recombinant proteins of HDAC1 or HDAC6 were incubated with test compounds, and HDAC reaction was initiated by addition of Fluor-de-Lys substrate. Samples were incubated for 10 min at room temperature, followed by adding developer to stop the reaction. Fluorescence was measured by fluorometric reader with excitation at 360 nm and emission at 460 nm. The HDAC activity was expressed as arbitrary fluorescence units (AFU). […] The half maximal inhibitory concentration (IC50) values for the test compounds were calculated from software SigmaPlot.

[1] = test system: acetylation of α-tubulin in A549 cells; experiment: Western blot analysis of tubulin acetylation in A549 cells; format: cell-based, human; conditions: SAHA at 5 μM
Protocol: (§2) After treated with test compounds (i.e., compounds of example 1), cells were lysed on ice, and cell lysates were collected and subjected to SDS-PAGE. Immunoblotting was performed using specific antibodies to evaluate the expression of proteins.
(§3) The intracellular histone acetylation status is a direct indicator for class I HDAC inhibition, whereas α-tubulin is the substrate of class II HDAC (i.e., HDAC 6).

HDAC2 = HDAC2 (Homo sapiens (Human), UniProt Q92769); experiment: HDAC fluorescent activity assay (HDAC2); format: biochemical
HDAC6 = HDAC6 (Homo sapiens (Human), UniProt Q9UBN7); experiment: HDAC fluorescent activity assay (HDAC6); format: biochemical; conditions: mean ± SD of three experiments
Protocol: as §1

[2] = test system: acetylation of histone H3 in A549 lung cancer cells; experiment: Western blot analysis of histone acetylation in A549 cells; format: cell-based, human; conditions: SAHA at 5 μM
Protocol: as §2, §3

HMGR = HMGR (Homo sapiens (Human), UniProt P04035); experiment: HMG-CoA reductase (HMGR) activity assay, recombinant protein; format: biochemical; conditions: for IC50: mean ± SD of three experiments
From the text: HMG-CoA Reductase (HMGR) Activity Assay.

[3] = biological target: HMGR activity in A549 lung cancer cells (Homo sapiens (Human), UniProt P04035); experiment: HMGR activity in whole cell lysates of treated A549 lung cancer cells; conditions: 1-50 μM, 24 h
HMGR activity in A549 lung cancer cells, sequence (P04035 whole entry): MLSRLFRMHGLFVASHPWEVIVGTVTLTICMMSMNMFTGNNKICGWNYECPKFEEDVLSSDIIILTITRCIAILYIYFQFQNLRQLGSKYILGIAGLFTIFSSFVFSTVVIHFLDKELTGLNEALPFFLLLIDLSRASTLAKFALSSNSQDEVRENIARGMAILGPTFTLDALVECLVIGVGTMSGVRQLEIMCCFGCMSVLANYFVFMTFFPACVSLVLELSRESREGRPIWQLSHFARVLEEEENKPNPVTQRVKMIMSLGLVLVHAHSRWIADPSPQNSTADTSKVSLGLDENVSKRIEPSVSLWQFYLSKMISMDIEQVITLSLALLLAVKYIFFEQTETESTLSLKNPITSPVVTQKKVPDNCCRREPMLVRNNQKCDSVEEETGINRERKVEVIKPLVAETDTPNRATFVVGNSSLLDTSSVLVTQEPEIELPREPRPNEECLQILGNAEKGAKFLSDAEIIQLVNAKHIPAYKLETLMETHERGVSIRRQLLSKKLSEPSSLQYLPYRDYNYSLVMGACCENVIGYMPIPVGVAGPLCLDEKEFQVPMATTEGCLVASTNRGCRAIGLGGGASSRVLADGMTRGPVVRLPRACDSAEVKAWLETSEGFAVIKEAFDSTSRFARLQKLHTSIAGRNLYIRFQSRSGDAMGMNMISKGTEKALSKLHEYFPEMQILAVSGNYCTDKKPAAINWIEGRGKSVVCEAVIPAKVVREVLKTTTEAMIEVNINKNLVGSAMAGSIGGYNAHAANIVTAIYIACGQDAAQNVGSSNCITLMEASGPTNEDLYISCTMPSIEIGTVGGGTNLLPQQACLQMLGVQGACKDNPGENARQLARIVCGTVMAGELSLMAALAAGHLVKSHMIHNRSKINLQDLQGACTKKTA
Protocol: A549 cells were cultured in Dulbecco's modified Eagle's medium (DMEM) in a humidified incubator containing 5% CO2/95% air.
The HMGR activity was performed using HMG-CoA reductase assay kit from Sigma-Aldrich with the human recombinant protein or 100 μg total cell lysates from A549 cells. […] HMGR activity under defined assay conditions, containing NADPH and HMG-CoA substrate in a final volume of 0.2 mL of 100 mM potassium phosphatate buffer (120 mM KCI, 1 mM EDTA, 5 mM DTT, pH 7.4), were initiated in the presence or absence (control) of test compounds dissolved in dimethylsulfoxide (DMSO). The rates of NADPH consumption were monitored every 20 seconds, for up to 10 minutes, by spectrophotometer at 37° C. and 340 nm. The HMGR activity was calculated as a percentage of activity compared with the control group at 5 min. The IC50 values were calculated from software SigmaPlot.

HDAC6, sequence (Q9UBN7 whole entry, species assumed): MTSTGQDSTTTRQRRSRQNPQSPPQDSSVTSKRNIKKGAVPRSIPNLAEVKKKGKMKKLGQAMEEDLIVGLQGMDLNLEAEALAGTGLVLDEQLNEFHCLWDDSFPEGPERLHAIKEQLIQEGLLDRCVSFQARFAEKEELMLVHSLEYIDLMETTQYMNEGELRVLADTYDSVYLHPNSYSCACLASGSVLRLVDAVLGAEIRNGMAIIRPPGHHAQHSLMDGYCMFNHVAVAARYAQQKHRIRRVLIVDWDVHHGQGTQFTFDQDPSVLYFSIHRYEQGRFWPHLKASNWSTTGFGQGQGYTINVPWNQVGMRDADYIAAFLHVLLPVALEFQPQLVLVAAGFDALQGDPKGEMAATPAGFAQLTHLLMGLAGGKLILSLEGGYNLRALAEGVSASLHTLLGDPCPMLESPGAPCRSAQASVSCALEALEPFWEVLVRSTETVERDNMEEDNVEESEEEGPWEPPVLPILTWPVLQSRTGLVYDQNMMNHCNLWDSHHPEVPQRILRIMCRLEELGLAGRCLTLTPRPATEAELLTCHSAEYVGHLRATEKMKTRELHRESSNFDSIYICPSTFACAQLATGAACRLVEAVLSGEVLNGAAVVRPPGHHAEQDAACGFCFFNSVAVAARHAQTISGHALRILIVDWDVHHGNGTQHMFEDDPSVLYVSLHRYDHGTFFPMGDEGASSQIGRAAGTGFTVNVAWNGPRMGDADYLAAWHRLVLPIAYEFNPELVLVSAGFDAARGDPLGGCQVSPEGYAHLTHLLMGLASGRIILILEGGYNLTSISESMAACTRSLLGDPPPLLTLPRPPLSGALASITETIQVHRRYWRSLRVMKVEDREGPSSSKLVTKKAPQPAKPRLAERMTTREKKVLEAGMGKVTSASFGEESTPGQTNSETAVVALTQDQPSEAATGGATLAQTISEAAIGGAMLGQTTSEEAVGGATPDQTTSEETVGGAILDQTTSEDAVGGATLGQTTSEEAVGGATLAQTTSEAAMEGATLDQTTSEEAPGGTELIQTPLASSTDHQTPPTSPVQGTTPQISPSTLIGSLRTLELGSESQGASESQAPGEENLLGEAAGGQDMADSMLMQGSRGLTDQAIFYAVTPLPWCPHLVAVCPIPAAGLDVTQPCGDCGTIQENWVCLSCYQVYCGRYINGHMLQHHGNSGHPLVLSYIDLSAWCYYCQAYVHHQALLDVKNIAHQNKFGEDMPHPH
HMGR, sequence (P04035 426-888 limits assumed): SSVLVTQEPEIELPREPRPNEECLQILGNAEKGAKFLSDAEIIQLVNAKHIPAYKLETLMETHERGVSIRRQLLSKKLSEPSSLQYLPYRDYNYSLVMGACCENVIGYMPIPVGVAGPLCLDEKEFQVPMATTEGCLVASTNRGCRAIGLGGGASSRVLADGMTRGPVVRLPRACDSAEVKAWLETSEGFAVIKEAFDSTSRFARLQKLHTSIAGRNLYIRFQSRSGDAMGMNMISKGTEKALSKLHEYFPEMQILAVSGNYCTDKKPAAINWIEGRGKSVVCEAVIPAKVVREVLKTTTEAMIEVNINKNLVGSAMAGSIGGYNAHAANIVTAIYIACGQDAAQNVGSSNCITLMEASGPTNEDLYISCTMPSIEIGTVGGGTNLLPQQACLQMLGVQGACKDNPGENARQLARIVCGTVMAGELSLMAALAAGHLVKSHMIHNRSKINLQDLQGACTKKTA
HDAC1, sequence (Q13547 whole entry, species assumed): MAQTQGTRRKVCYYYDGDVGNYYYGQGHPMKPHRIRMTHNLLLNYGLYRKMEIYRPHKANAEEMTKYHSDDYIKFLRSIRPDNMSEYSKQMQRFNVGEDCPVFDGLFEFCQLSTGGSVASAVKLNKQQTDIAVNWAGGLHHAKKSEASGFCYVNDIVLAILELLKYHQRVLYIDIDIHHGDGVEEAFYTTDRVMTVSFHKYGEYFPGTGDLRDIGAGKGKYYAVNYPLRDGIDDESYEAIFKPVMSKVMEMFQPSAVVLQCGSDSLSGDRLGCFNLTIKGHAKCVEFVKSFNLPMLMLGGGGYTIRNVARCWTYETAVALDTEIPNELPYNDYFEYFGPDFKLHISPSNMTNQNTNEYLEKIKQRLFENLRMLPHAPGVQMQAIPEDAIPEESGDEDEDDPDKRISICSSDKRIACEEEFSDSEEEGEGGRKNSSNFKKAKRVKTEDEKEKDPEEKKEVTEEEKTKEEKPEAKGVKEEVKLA
HDAC2, sequence (Q92769 whole entry, species assumed): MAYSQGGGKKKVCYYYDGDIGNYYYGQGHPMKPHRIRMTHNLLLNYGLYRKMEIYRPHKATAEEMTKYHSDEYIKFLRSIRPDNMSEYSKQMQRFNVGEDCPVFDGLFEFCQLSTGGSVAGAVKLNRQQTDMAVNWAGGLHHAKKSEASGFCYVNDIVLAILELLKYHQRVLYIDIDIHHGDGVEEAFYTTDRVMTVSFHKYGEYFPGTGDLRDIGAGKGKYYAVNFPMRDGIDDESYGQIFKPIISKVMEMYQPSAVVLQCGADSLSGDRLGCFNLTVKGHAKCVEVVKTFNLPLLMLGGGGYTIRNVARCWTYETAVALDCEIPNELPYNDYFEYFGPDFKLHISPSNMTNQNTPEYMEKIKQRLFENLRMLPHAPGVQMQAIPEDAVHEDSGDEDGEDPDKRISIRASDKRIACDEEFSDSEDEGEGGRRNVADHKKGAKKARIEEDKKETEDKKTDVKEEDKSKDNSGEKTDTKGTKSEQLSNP

C[C@H]1C=C2C=C[C@H](C)[C@H](CC[C@@H]3C[C@@H](O[Si](C)(C)C(C)(C)C)CC(=O)O3)[C@H]2[C@@H](OC(=O)NCc2ccc(-c3cn(CCCCCCC(=O)NO)nn3)cc2)C1 [8b, (4R,6R)-6-(2-{(1S,2S,6R,8S,8aR)-8-[(4-{1-[7-(Hydroxyamino)-7-oxoheptyl]-1H-1,2,3-triazol-4-yl}benzyl)carbamoyloxy]-2,6-dimethyl-1,2,6,7,8,8a-hexahydronaphthyl}ethyl)-4-tert-butyldimethylsilyloxy-3,4,5,6-tetrahydro-2H-pyran-2-one]
IC50 (HDAC1): 125 ± 6.3 nM
tubulin acetylation (Western blot) [1]: promoted histone and tubulin acetylation in a dose dependent manner
IC50 (HDAC2): 882 ± 9.7 nM
IC50 (HDAC6): 34 ± 4.3 nM
histone acetylation (Western blot) [2]: promoted histone and tubulin acetylation in a dose dependent manner

CC[C@H](C)C(=O)O[C@H]1C[C@@H](C)C=C2C=C[C@H](C)[C@H](CC[C@@H]3C[C@@H](O)CC(=O)O3)[C@H]21 [lovastatin, reference compound]
tubulin acetylation (Western blot) [1]: no effect
histone acetylation (Western blot) [2]: no effect

C#Cc1ccc(CNC(=O)O[C@H]2C[C@@H](C)C=C3C=C[C@H](C)[C@H](CC[C@@H]4C[C@@H](O[Si](C)(C)C(C)(C)C)CC(=O)O4)[C@H]32)cc1 [6b, (4R,6R)-6-(2-{(1S,2S,6R,8S,8aR)-8-[(4-Ethynylbenzyl)carbamoyloxy]-2,6-dimethyl-1,2,6,7,8,8a-hexahydronaphthyl}ethyl)-4-tert-butyldimethylsilyloxy-3,4,5,6-tetrahydro-2H-pyran-2-one]
IC50 (HDAC1; mean ± SD of three experiments): 125 ± 6.3 nM
IC50 (HMGR): 53.8 ± 5.2 nM
IC50 (HDAC2; mean ± SD of three experiments): 882 ± 9.7 nM
IC50 (HDAC6): 34 ± 4.3 nM

C[C@H]1C=C2C=C[C@H](C)[C@H](CC[C@@H]3C[C@@H](O[Si](C)(C)C(C)(C)C)CC(=O)O3)[C@H]2[C@@H](OC(=O)Nc2ccc(-c3cn(CCCCCCC(=O)NO)nn3)cc2)C1 [8a, (4R,6R)-6-(2-{(1S,2S,6R,8S,8aR)-8-[(4-{1-[7-(Hydroxyamino)-7-oxoheptyl]-1H-1,2,3-triazol-4-yl}phenyl)carbamoyloxy]-2,6-dimethyl-1,2,6,7,8,8a-hexahydronaphthyl}ethyl)-4-tert-butyldimethylsilyloxy-3,4,5,6-tetrahydro-2H-pyran-2-one]
IC50 (HDAC1): 159 ± 8.4 nM
tubulin acetylation (Western blot) [1]: promoted histone and tubulin acetylation in a dose dependent manner
IC50 (HDAC2): 463 ± 28 nM
IC50 (HDAC6): 127 ± 21.5 nM
histone acetylation (Western blot) [2]: promoted histone and tubulin acetylation in a dose dependent manner

C[C@H]1C=C2C=C[C@H](C)[C@H](CC[C@@H]3C[C@@H](O[Si](C)(C)C(C)(C)C)CC(=O)O3)[C@H]2[C@@H](OC(=O)NCCCCCCC(=O)NO)C1 [12a, (4R,6R)-6-[2-((1S,2S,6R,8S,8aR)-8-{[7-(Hydroxyamino)-7-oxoheptyl]carbamoyloxy}-2,6-dimethyl-1,2,6,7,8,8a-hexahydronaphthyl)ethyl]-4-tert-butyldimethylsilyloxy-3,4,5,6-tetrahydro-2H-pyran-2-one]
IC50 (HDAC1; mean ± SD of three experiments): 122 ± 12.7 nM
IC50 (HDAC2; mean ± SD of three experiments): 658 ± 21.1 nM
IC50 (HDAC6): 140 ± 5.7 nM

O=C(CCCCCCC(=O)Nc1ccccc1)NO [SAHA, suberanilohydroxamic acid, reference compound]
inhibition of HMGR activity (in words) (HMGR; enzyme assay, any dose): no inhibition on HMGR activity at any dose
reduction of HMGR activity in whole cell lysates (in words) [3]: failed to inhibit HMGR at any dose
tubulin acetylation (Western blot) [1]: markedly induced
histone acetylation (Western blot) [2]: markedly induced

C#Cc1ccc(NC(=O)O[C@H]2C[C@@H](C)C=C3C=C[C@H](C)[C@H](CC[C@@H]4C[C@@H](O[Si](C)(C)C(C)(C)C)CC(=O)O4)[C@H]32)cc1 [6a, (4R,6R)-6-(2-{(1 S,2S,6R,8S,8aR)-8-[(4-ethynylphenyl)carbamoyloxy]-2,6-dimethyl-1,2,6,7,8,8a-hexahydronaphthyl}ethyl)-4-tert-butyldimethylsilyloxy-3,4,5,6-tetrahydro-2H-pyran-2-one]
IC50 (HDAC1): 159 ± 8.4 nM
IC50 (HMGR): 36.5 ± 5.3 nM
IC50 (HDAC2): 463 ± 28 nM
IC50 (HDAC6): 127 ± 21.5 nM
